Values quoted from earlier work, collected in article PMC8287861 (Frontiers in Microbiology, 2021).
In brackets after ≈: the same amount, converted by molar mass. Read-outs that look alike come from different tables or passages of the source.

Columns and labels:
[1] = set-up: method as in Hecker et al., 2020; conditions: ref Hecker et al. (2020)
CTX-M-15 = system: CTX-M-15; set-up: method as in Tsivkovski et al. (2020); conditions: CTX-M-15, class A; ref Tsivkovski et al. (2020)
NDM-1 = system: NDM-1; set-up: method as in Tsivkovski et al. (2020); conditions: class B, ref Tsivkovski et al. (2020)
VIM-1 = system: VIM-1; set-up: method as in Tsivkovski et al. (2020); conditions: VIM-1, class B; ref Tsivkovski et al. (2020)
KPC-2 [2] = system: KPC-2
SHV-12 = conditions: SHV-12, class A; ref Tsivkovski et al. (2020)
IMP-1 = system: IMP-1; set-up: method as in Tsivkovski et al. (2020); conditions: class B, ref Tsivkovski et al. (2020)
KPC-2 [3] = system: KPC-2; set-up: method as in Tsivkovski et al. (2020); conditions: KPC-2, class A; ref Tsivkovski et al. (2020)
P99 = system: P99; set-up: method as in Tsivkovski et al. (2020); conditions: P99, class C; ref Tsivkovski et al. (2020)
[4] = system: KPC-producing porin/efflux mutants of K. pneumoniae; conditions: ref Lomovskaya et al., 2017
IMP-26 = system: IMP-26; set-up: method as in Tsivkovski et al. (2020); conditions: class B, ref Tsivkovski et al. (2020)
CTX-M-14 = system: CTX-M-14; set-up: method as in Tsivkovski et al. (2020); conditions: CTX-M-14, class A; ref Tsivkovski et al. (2020)
[5] = system: isogenic strains of P. aeruginosa that produced KPC; set-up: method as in Lomovskaya et al., 2020a; conditions: ref Lomovskaya et al., 2020a; for PV50: potency to enhance biapenem activity;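 on PV50: read from a curve of biapenem MIC plotted against inhibitor concentration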
OXA-48 = system: OXA-48; set-up: method as in Tsivkovski et al. (2020); conditions: OXA-48, class D; ref Tsivkovski et al. (2020)
[6] = same mutations (OmpK35, OmpK36, increased efflux)

| Compound | IC50 (CTX-M-15) [nM] | IC50 (NDM-1) [nM] | IC50 (VIM-1) [nM] | IC50 (SHV-12) [nM] | IC50 (IMP-1) [nM] | IC50 (KPC-2 [3]) [nM] | IC50 (P99) [nM] | IC50 (IMP-26) [nM] | IC50 (CTX-M-14) [nM] | other results |
| --- | --- | --- | --- | --- | --- | --- | --- | --- | --- | --- |
| COc1ccc2c(c1C(=O)O)OB(O)CC2 [RPX7610] | – | – | – | – | – | – | – | – | – | metabolic stability (in words) [1]: metabolic liability; effect of efflux and porin mutations (β-lactamases; ref Hecker et al. (2020)): minimally affected by efflux and porin mutations; β-lactamase inhibition (in words) (β-lactamases; ref Hecker et al. (2020)): potent inhibition of all target β-lactamases |
| O=C(O)C[C@@H]1CC[C@H](NC(=O)Cc2cccs2)B(O)O1 [Vaborbactam, vaborbactam] | 92 ± 13 | > 160000 | > 160000 | 56 ± 11 | > 160000 | 110 ± 30 | 88 ± 38 | > 160000 | 110 ± 40 | residence time (KPC-2 [2]; ref Tsivkovski and Lomovskaya, 2019): ~6 h; potency to completely inhibit KPC ([4]; before porin/efflux mutations): 0.25 µg/mL (≈ 0.841 µM); potency to completely inhibit KPC [4, 6]: 64 µg/mL (≈ 215 µM); reduction of the potency [4, 6]: 256 fold; potency against other class A or class C beta lactamases compared to KPC enzymes (β-lactamases; fold less potent, ref Tsivkovski and Lomovskaya, 2019): 10–50 fold; PV50 ([5]; PAM4126, mexR (MexAB-OprM)): 64 µg/mL; PV50 ([5]; PAM4129, nfxB (MexCD-OprJ)): 4 µg/mL; PV50 ([5]; PAM4132, mexT (MexEF-OprM)): >64 µg/mL; PV50 ([5]; PAM4150, mexZ (MexXY-OprM)): 8 µg/mL; PV50 ([5]; PAM4224, Wild-type): 8 µg/mL; PV50 ([5]; PAM4365, MexA::Tet): 0.5 µg/mL; reduction in potency ([5]; overproduction of the MexAB-OprM or the MexEF-OprN efflux pumps): ≥ 8 fold |
| O=C(NC1CCNCC1)[C@@H]1CC[C@@H]2CN1C(=O)N2OS(=O)(=O)O [Relebactam, relebactam] | 76 ± 3 | > 160000 | > 160000 | 330 ± 50 | > 160000 | – | 36 ± 4 | > 160000 | 34 ± 10 | residence time (KPC-2 [2]; ref Papp-Wallace et al., 2018): 1.5 h |
| NC(=O)[C@@H]1CC[C@@H]2CN1C(=O)N2OS(=O)(=O)O [Avibactam, avibactam] | 0.56 ± 0.25 | > 160000 | > 160000 | 0.61 ± 0.19 | > 160000 | […] | 26 ± 7 | > 160000 | 1.4 ± 0.4 | residence time (KPC-2 [2]; ref Ehmann et al., 2013): ~2 h; IC50 (OXA-48): […] |
